Experimental data taken from patent US20020115728A1, “Compositions and methods for treating cardiovascular disorders” (priority 2000, published 2002).

Assays:
[1] = tested on: tocopherol-mediated peroxidation (TMP); experiment: Anti-TMP index; type: biochemical
[2] = tested on: α-tocopheroxyl radical; experiment: Tocopheroxyl radical attenuating ability (TRAA); type: biochemical; settings: kobs with (+) or without (−) test compound
[3] = tested on: apoE−/−;LDLr−/− mice; experiment: Plasma lipid and vitamin E levels; type: in vivo; settings: chow with 0.03% bisphenol, 14 weeks
Experimental: Male apoE−/−;LDLr−/− mice (59 total), were maintained on standard R3 chow from weaning to 8 weeks of age (young controls, n=9). Thereafter mice received R3 chow with (n=25) or without supplemented bisphenol (n=25) for an additional 14 weeks. Standard R3-mouse chow was fortified with bisphenol at 0.03% (w/w), a level of supplementation shown in pilot experiments to afford circulating concentrations of the drug of ˜200 μM, considered suitable to test the effect of the co-antioxidant on atherogenesis in this animal model. At 22 weeks of age 10 and 15 mice of each group were used for biochemical and histological analyses, respectively. […]
Analyses of oxidised and non-oxidised lipids were carried out by RP-HPLC as described in Example 1 except that in some instances UV234 nm rather than post-column chemiluminescence detection was used to measure C18:2-OOH and the corresponding hydroxides (together referred to as CE-O(O)H) which show similar retention times under these chromatographic conditions. α-TQ, α-TOH, α-tocotrienol, D-isosascorbate and ascorbate were determined by HPLC with electrochemical detection. For oxidation of plasma, unesterified cholesterol (which remained non-oxidised in these experiments) was employed as internal standard for all polyunsaturated, lipid-soluble components analysed. […] All compounds were quantified by peak area comparison with authentic standards. […]

[4] = tested on: plasma from apoE−/−;LDLr−/− mice; experiment: Ex vivo plasma lipid peroxidation initiated by aqueous peroxyl radicals (AAPH); type: in vivo
Experimental: Pooled plasma obtained from at least 3 mice receiving control diet (circles) or diet supplemented with bisphenol (squares) were treated with 5 mM AAPH and incubated at 37° C. At the times indicted aliquots were removed and analysed for α-TOH (A) and CE-O(O)H (B). 100% α-TOH levels correspond to 28±3 and 20±2 μM for control and H 212/43 plasma, respectively. Data represents the mean±SD (n=4 independent experiments).
Oxidation of plasma, pooled from=3 mice was carried out by addition of the peroxyl radical generator (final concentrations 5 mM) and incubating the reaction mixture at 37° C. under air. Aliquots (50 μL) of the reaction mixture were removed, extracted in methanol/hexane (1:5, v/v), and the consumption of antioxidants and accumulation of lipid oxidation products determined.

[5] = tested on: plasma lipids obtained from apoE−/− mice; experiment: Ex vivo oxidizability of plasma lipids (aqueous peroxyl radical generator); type: in vivo; settings: pooled plasma of probucol-treated apoE−/− mice, 5 mM MPH, 37° C.
Experimental: Pooled plasma obtained from control (open symbols) or probucol-treated (closed symbols) mice was exposed to 5 mM of the aqueous peroxyl radical generator MPH and incubated under air at 37° C. […] Data shown are mean±SD of a single oxidation experiment performed in triplicate using pooled plasma. Where error bars are not shown, error is smaller than the symbol.
(§1) Plasma was obtained from control and probucol mice and aliquots frozen for subsequent determination of lipids. Separate aliquots were acidified with metaphosphoric acid (5%) to stabilize vitamin C prior to freezing and storage at −80° C. The remainder was pooled appropriately and used for ex vivo oxidation initiated by the peroxyl radical generator AAPH and lipoprotein separation by FPLC with UV280nm detection, as described in J Lipid Res. 1999;40:1104-1112.
Enhanced resistance of plasma lipoproteins to oxidation is often used as a measure of antioxidant efficacy. Therefore, we examined MPH-induced oxidation of pooled plasma from control and treated animals. […] These observations can be explained readily on the basis of tocopherol-mediated peroxidation.

[6] = tested on: cholesterol-fed, ballooned New Zealand White rabbits; experiment: Atherosclerosis/restenosis and lipid oxidation in cholesterol-fed, ballooned rabbits; type: in vivo; settings: 2% cholesterol diet with 1% probucol, 6 weeks
Experimental: Aortic endothelial denudation was performed at week 3 by withdrawing an inflated 3F Fogarty balloon embolectomy catheter three times down the length of the aorta. Plasma was obtained from animals as described in Example 1 at the start and end of the study. At the end of the study period, individual aortas were removed and prepared for HPLC analysis as in Example 1. Lipids and antioxidants including probucol and its metabolites, bisphenol and diphenoquinone, were analyzed by RP-HPLC as described previously. Aortas designated for histology were perfusion-fixed with 4% (v/v) formaldehyde and transferred into formalin. Cross-sections (2-3 μm thick) were prepared and stained with Weigert's hematoxylin-van Gieson, and the intima to media ratio determined for three sections.

[7] = tested on: apoE−/− mice; experiment: Plasma lipids and antioxidants; type: in vivo; settings: 1% probucol, 24 weeks
Experimental: Male C57BL/6J mice, homozygous for the disrupted apoE gene (apoE−/−) were fed standard chow (Lab-Feed, Sydney, Australia) until aged 10 weeks. […] The high fat diet (control and probucol-supplemented) was prepared, according to the specifications of the Harlan Teklad diet TD88137.
as §1
Lipid-soluble antioxidants and lipids were quantified by HPLC as described in FASEB J. 1999;13:667-675. For ascorbate analysis, frozen acidified samples were thawed, diluted with DPBS to adjust the pH to 7.4 and then immediately subjected to HPLC. Plasma triglycerides were determined enzymatically (Boehringer, Mannheim, Germany).
ApoE−/− mice were fed either a control or probucol-supplemented diet for 24 weeks before aortas and plasma were analysed.

[8] = pooled plasma of bisphenol-treated mice, 5 mM AAPH, 37° C., 12 h

CC(C)(C)c1cc(-c2cc(C(C)(C)C)c(O)c(C(C)(C)C)c2)cc(C(C)(C)C)c1O [Bisphenol, bisphenol]
Anti-TMP index [1]: 3.2 | TRAA (decay of tocopheroxyl radical; kobs(+)/kobs(−)) [2]: Immediate decay | Plasma Triglycerides [3]: 6.3 (0.5) mm | CE-OOH detected after 12 h of ex vivo oxidation [4, 8]: < 1 µM | α-TOH after 12 h of ex vivo oxidation [4, 8]: remained unaltered | 100% α-TOH level of plasma before oxidation ([4]; pooled plasma of mice receiving bisphenol diet): 20 ± 2 µM | fate of the compound present in plasma during the oxidation period [5]: oxidised into diphenoquinone

CC(C)(Sc1cc(C(C)(C)C)c(O)c(C(C)(C)C)c1)Sc1cc(C(C)(C)C)c(O)c(C(C)(C)C)c1 [Probucol, probucol]
content of plasma and aortic lipids and absolute amounts of oxidized lipids [6]: significantly decreased | proportion of aortic lipids that was oxidized [6]: not affected | effect on atherosclerosis ([6]; aortic denudation at week 3): significantly decreased | decrease of plasma vitamin E vs controls [7]: ~4 fold | increase of plasma ascorbate vs controls [7]: ~1.4 fold | Plasma Ascorbate ([7]; plasma): 129.2 µM | Plasma C18:2 ([7]; plasma): 1.3 ± 0.8 mM | Plasma C20:4 ([7]; plasma): 0.2 ± 0.2 mM | Plasma C (cholesterol) ([7]; plasma): 2.6 ± 1.2 mM | Plasma CE-OH ([7]; plasma): 0.0002 mM | Plasma Total coenzyme Q ([7]; plasma): 0.4 µM | Plasma Triglycerides ([7]; plasma): 0.4 ± 0.0 mM | Plasma Ubiquinol-10 ([7]; plasma): 0.01 ± 0.02 µM | Plasma Ubiquinone-9 ([7]; plasma): 0.3 ± 0.1 µM | Plasma Ubiquinone-10 ([7]; plasma): 0.1 ± 0.1 µM | Plasma α-Tocopherol ([7]; plasma): 10.5 ± 3.50 µM | fate of the compound present in plasma during the oxidation period [5]: remained unchanged | onset and initial rate of CE-O(O)H accumulation vs control plasma ([5]; air): delayed and decreased
